Data: US20260297087A1, “Pyridoimidazolone Compounds, Preparation Thereof and Therapeutic Uses Thereof” (Sanofi, priority 2023, published 2026)

How the values were obtained:
[1] = molecular target: T1, ERK5 (Homo sapiens, UniProt Q13164); assay: Inhibition of Cellular ERK5 Activity (cell-based assay, MEF2 luciferase reporter in SN12C cells); settings: renal cancer cell line SN12C, doxycycline-induced MEKSDD, mean where repeated
T1 construct: MEF2-luciferase reporter
Method: (§1) Two assays were performed to assess the ERK5 inhibitory activity of compounds of the Examples, a cell-based assay and a cell-free biochemical assay. Where repeat measurements were taken, the value reported is a mean average.
The renal cancer cell line SN12C was transduced by a lentivirus pGreenFire1 MEF2 EF1 Neo (ref TR030VA-N) from SBI using standard infection protocol. pGreenFire1 MEF2 EF1 Neo allows the expression of luciferase gene under the control of minimal promoter with MEF2 transcriptional response elements. Cells harboring the reporter construct were selected by geneticin treatment. The selected cells were then transposed by a piggyback based plasmid pCM4007 allowing the expression of constitutively activated MEKSDD under control of TREG3 promoter, a doxycycline regulated promoter. Transposed cells were selected by puromycin treatment. Upon doxycycline treatment (1p g/ml) MEKSDD was expressed. MEKSDD activates ERK5 that phosphorylates MEF2C protein. Activated MEF2C protein can bind to its transcriptional response elements. Then the luciferase is expressed. In a 96-well plate (96F nuncleon refl37101 thermofisher), 50,000 cells were inoculated in 142.5 μl of RPMI medium containing 10% fetal calf serum, 1% glutamine, and 1 μg/ml doxycycline. After 24 hours, compounds were added in 7.5 μl culture medium (with 2% DMSO to give a final concentration of 0.1%) in order to obtain the desired concentration (0.3-1000 nM). The luciferase activity was measured using the Kit Bright Glo Luminescent Cell Assay Cat E2610 (Promega) according to the manufacturer's protocol. Luminescence was determined using 0.2 second reading/well using a Tecan SPARK. IC50 values were calculated using XLFIT5 for Microsoft Excel using method 205. The IC50 values represent the concentration of compound which inhibits the measurable luminescence signal by 50% as compared to DMSO-treated control cells.

[2] = molecular target: T2, ERK5 (activated catalytic domain) (Homo sapiens, UniProt Q13164); assay: Cell-Free Assay of ERK5 Inhibition (Time-Resolved FRET, 4EBP1 peptide phosphorylation); type: biochemical; settings: ERK5 catalytic domain 4 nM, 1 mM ATP, 1 μM biotinylated 4EBP1 peptide, 30 min at 37° C.; mean where repeated; read-out: Cell-free assay (IC50 in nM)
T2 construct: purchased CarnaBiosciences 04-146
T2 sequence (Q13164 55-347 limits assumed): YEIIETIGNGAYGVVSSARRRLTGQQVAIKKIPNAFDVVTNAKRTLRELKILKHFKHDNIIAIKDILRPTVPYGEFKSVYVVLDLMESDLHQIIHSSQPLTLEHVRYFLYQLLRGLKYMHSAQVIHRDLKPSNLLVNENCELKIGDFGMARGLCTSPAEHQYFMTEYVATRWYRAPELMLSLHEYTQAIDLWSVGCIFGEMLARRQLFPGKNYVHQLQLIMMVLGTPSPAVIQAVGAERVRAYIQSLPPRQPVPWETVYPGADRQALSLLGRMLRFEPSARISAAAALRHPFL
Method: as §1
An assay was performed to measure the capacity of each compound to inhibit ERK5 enzymatic activity. Compound potency was evaluated by Time-Resolved Forster Resonance Energy Transfer (FRET system). The activated catalytic domain of protein ERK5 (CarnaBiosciences #04-146) was mixed at 4 nM with varying concentrations of compound and incubated for 30 minutes at room temperature. A mixture of 1 mM ATP and 1 μM biotinylated synthetic peptide was added (Biosyntan GmbH). This synthetic peptide represents amino acids 30-52 of Eukaryotic translation initiation factor 4E-binding protein 1 (see, e.g., the sequence under accession No. NP_004086.1) biotinylated at the N-terminus. After 30 minutes at 37° C., the peptide phosphorylation by ERK5 was measured by addition of FRET reagents consisting of 12.5 μg/ml Streptavidin-XL665, 1 nM Anti-P-4EBP1 antibody and 300 ng/ml Anti-rabbit-K antibody. Following 90 minutes at room temperature fluorescent signals were read on the Pherastar FSX multimod detector from BMG Labtech (Exc° 340 nm, Em1 620 nm, Em2 665 nm). The IC50 values represent the concentration of compound which inhibits the measurable fluorescence signal by 50% as compared to the DMSO only control.

T1 sequence (Q13164 whole entry): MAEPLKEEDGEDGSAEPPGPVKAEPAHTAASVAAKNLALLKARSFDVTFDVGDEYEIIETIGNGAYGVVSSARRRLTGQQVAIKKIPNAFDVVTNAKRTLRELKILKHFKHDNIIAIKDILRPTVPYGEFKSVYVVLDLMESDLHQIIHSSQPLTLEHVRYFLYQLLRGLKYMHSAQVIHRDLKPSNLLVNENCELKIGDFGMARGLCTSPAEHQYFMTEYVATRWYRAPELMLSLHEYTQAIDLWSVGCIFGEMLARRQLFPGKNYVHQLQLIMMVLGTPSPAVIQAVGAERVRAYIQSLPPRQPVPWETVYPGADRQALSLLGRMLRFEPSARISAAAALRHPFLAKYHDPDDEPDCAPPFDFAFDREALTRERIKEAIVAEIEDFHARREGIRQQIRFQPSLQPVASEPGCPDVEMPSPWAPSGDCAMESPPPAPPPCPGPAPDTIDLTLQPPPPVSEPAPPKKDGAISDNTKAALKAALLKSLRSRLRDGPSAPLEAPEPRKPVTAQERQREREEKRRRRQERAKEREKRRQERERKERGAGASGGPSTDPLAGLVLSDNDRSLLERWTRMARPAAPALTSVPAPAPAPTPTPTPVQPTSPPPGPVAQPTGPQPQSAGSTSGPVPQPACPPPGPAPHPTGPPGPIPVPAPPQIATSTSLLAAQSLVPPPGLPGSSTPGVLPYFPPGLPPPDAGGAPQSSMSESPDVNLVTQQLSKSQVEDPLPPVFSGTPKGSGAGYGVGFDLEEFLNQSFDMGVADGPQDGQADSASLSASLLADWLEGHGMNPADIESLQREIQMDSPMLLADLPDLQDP

Row | Compound | IC50 [1] [nM] | IC50 [2] [nM]
1 | CO[C@H]1CC[C@@H](c2cnc3[nH]c(=O)n(C4CCN(C(=O)c5ccc(OC(F)(F)F)cc5)CC4)c3c2)CC1 [Example 27, cis-6-(4-methoxycyclohexyl)-1-[1-[4-(trifluoromethoxy)benzoyl]-4-piperidyl]-3H-imidazo[4,5-b]pyridin-2-one] | 536 | 1180
2 | Nc1cc(OC(F)(F)F)ccc1C(=O)N1CCC(n2c(=O)[nH]c3ncc(C4CCC4)cc32)CC1 [Example 29, 1-[1-[2-amino-4-(trifluoromethoxy)benzoyl]-4-piperidyl]-6-cyclobutyl-3H-imidazo[4,5-b]pyridin-2-one] | 213 | 420
3 | Nc1cc(OC(F)(F)F)ccc1C(=O)N1CCC(n2c(=O)[nH]c3ncc(C45CC(C(F)(F)F)(C4)C5)cc32)CC1 [Example 30, 1-[1-[2-amino-4-(trifluoromethoxy)benzoyl]-4-piperidyl]-6-[3-(trifluoromethyl)-1-bicyclo[1.1.1]pentanyl]-3H-imidazo[4,5-b]pyridin-2-one] | 310 | 15300
4 | Nc1cc(OC(F)(F)F)ccc1C(=O)N1CCC(n2c(=O)[nH]c3ncc(C45CCC(C4)C5)cc32)CC1 [Example 32, 1-[1-[2-amino-4-(trifluoromethoxy)benzoyl]-4-piperidyl]-6-(1-bicyclo[2.1.1]hexanyl)-3H-imidazo[4,5-b]pyridin-2-one] | 347 | 1140
5 | Nc1cc(OC(F)(F)F)ccc1C(=O)N1CCC(n2c(=O)[nH]c3ncc(C4CCC(F)(F)CC4)cc32)CC1 [Example 35, 1-[1-[2-amino-4-(trifluoromethoxy)benzoyl]-4-piperidyl]-6-(4,4-difluorocyclohexyl)-3H-imidazo[4,5-b]pyridin-2-one] | 205 | 695
6 | Nc1cc(OC(F)(F)F)ccc1C(=O)N1CCC(n2c(=O)[nH]c3ncc(C4CCCCC4)cc32)CC1 [Example 36, 1-[1-[2-amino-4-(trifluoromethoxy)benzoyl]-4-piperidyl]-6-cyclohexyl-3H-imidazo[4,5-b]pyridin-2-one] | 285 | 888
7 | Nc1cc(OC(F)(F)F)ccc1C(=O)N1CCC(n2c(=O)[nH]c3ncc(C4CC5CCC4C5)cc32)CC1 (stereo not shown) [Example 37, 1-[1-[2-amino-4-(trifluoromethoxy)benzoyl]-4-piperidyl]-6-norbornan-2-yl-3H-imidazo[4,5-b]pyridin-2-one] | 167 | 681

The next compounds have a lower IC50 [1] than those just listed; values first:

Row | IC50 [1] [nM] | IC50 [2] [nM] | Compound
8 | 42 | 395 | Nc1cc(OC(F)(F)F)ccc1C(=O)N1CCC(n2c(=O)[nH]c3ncc(C4CC5(CC(F)C5)C4)cc32)CC1 (stereo not shown) [Example 21, 1-[1-[2-amino-4-(trifluoromethoxy)benzoyl]-4-piperidyl]-6-(2-fluorospiro[3.3]heptan-6-yl)-3H-imidazo[4,5-b]pyridin-2-one]
9 | 67 | 502 | COCCc1cnc2[nH]c(=O)n(C3CCN(C(=O)c4ccc(OC(F)(F)F)cc4N)CC3)c2c1 [Example 24, 1-[1-[2-amino-4-(trifluoromethoxy)benzoyl]-4-piperidyl]-6-(2-methoxyethyl)-3H-imidazo[4,5-b]pyridin-2-one]
10 | 118 | 235 | CO[C@H]1CC[C@H](c2cnc3[nH]c(=O)n(C4CCN(C(=O)c5ccc(OC(F)(F)F)cc5)CC4)c3c2)CC1 [Example 26, trans-6-(4-methoxycyclohexyl)-1-[1-[4-(trifluoromethoxy)benzoyl]-4-piperidyl]-3H-imidazo[4,5-b]pyridin-2-one]
11 | 124 | 376 | Nc1cc(OC(F)(F)F)ccc1C(=O)N1CCC(n2c(=O)[nH]c3ncc(C45CC(C(F)F)(C4)C5)cc32)CC1 [Example 33, 1-[1-[2-amino-4-(trifluoromethoxy)benzoyl]-4-piperidyl]-6-[3-(difluoromethyl)-1-bicyclo[1.1.1]pentanyl]-3H-imidazo[4,5-b]pyridin-2-one]
